Laboratory results published in the supplement of paper PMC12463676, “Small-molecule dissolution of stress granules by redox modulation benefits ALS models” (Nature Chemical Biology, 2025).

Assays:
[1] = compound: NC(=O)CCCCC1CCSS1 [lipoamide]; assay: thermal stability z-score vs DMSO; higher = more thermally stabilized by treatment; details: HeLa, lipoamide concentration 100 µM
Procedure: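 Cellular thermal proteome profiling in HeLa cells. Cells were treated with 100 µM lipoamide for 1 h, with or without 1 mM arsenate for a further 1 h, then heated to ten temperatures (37-66.3 °C), and soluble protein was quantified by TMT mass spectrometry relative to 0.1% DMSO controls. The thermal stability score (sum of log2 fold changes minus the abundance score) was transformed to a z-score; mean of n = 3 experiments.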

[2] = compound: O=[As]([O-])(O)O.[K+] [potassium arsenate]; assay: as above; details: HeLa; arsenate concentration 1 mM
Procedure: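 Cellular thermal proteome profiling in HeLa cells treated with 1 mM arsenate for 1 h (DMSO pretreatment), heated to ten temperatures (37-66.3 °C). Soluble protein was quantified by TMT mass spectrometry relative to DMSO controls; the thermal stability score was transformed to a z-score; mean of n = 3 experiments.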

[3] = arsenate co-treatment: 1 mM arsenate 1 h
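Note: each temperature applied for 3 min, abundance score taken as mean log2 fold change at the two lowest temperatures, z-score obtained by mean subtraction and division by SD.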

UniProt Q9UL26, sequence (Q9UL26 whole entry): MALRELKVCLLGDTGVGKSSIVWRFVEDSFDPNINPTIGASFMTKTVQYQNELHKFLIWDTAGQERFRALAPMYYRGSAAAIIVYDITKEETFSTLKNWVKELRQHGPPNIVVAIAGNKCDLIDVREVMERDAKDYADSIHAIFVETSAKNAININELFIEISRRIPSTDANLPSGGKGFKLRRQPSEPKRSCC
UniProt P61026, sequence (P61026 whole entry): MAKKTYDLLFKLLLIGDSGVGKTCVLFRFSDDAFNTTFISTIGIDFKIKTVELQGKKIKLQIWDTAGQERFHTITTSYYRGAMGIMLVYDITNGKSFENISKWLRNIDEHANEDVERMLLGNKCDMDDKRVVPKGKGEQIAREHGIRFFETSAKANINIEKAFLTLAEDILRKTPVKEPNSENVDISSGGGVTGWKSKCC
UniProt P51148, sequence (P51148 whole entry): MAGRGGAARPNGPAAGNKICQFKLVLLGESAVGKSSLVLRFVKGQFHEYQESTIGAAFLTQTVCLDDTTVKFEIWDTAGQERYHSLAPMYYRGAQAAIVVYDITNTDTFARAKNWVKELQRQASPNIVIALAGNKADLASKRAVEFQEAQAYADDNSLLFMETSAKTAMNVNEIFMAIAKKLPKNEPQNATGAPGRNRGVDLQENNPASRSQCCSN
UniProt Q9BXF6, sequence (Q9BXF6 whole entry): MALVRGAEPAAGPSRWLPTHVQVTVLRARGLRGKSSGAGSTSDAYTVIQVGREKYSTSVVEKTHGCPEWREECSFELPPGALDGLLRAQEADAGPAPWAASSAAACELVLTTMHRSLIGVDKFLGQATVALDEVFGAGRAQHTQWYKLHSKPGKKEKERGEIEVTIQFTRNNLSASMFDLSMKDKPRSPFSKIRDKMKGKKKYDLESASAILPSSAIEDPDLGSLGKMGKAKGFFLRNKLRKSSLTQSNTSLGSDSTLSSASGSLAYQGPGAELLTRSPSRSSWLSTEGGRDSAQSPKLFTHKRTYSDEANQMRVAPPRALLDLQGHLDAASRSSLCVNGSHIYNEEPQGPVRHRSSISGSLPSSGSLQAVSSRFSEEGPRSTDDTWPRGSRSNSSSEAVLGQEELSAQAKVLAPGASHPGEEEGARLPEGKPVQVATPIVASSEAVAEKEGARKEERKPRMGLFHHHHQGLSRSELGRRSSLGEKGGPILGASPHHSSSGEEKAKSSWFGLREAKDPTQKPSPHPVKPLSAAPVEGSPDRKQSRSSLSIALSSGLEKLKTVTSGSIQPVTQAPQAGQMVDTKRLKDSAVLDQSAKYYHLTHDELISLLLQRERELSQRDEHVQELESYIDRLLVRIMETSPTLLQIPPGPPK
UniProt P20339, sequence (P20339 whole entry): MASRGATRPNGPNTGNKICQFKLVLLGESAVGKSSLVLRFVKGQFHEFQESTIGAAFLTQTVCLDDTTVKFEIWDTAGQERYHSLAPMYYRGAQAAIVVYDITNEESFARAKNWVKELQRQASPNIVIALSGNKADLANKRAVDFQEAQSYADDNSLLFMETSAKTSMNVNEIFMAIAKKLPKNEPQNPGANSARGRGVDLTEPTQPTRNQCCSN
UniProt Q9H082, sequence (Q9H082 whole entry): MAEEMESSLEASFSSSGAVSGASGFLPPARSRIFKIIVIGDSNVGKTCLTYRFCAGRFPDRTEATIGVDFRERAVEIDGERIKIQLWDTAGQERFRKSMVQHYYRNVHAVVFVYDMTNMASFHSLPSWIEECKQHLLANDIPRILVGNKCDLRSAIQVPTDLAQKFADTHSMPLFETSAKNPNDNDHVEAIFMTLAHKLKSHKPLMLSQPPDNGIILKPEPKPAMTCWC
UniProt Q9NXS2, sequence (Q9NXS2 whole entry, looked up): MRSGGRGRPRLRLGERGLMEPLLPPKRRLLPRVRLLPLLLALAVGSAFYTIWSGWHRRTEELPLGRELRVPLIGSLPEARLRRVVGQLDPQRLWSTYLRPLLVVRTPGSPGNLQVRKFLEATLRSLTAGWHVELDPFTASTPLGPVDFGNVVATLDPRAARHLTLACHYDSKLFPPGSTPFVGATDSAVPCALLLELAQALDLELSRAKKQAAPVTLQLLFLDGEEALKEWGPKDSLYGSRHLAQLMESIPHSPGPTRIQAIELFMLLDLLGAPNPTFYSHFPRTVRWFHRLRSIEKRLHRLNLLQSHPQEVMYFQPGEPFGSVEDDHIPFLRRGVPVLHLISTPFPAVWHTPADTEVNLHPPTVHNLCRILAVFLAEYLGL
UniProt Q2TAL8, sequence (Q2TAL8 whole entry): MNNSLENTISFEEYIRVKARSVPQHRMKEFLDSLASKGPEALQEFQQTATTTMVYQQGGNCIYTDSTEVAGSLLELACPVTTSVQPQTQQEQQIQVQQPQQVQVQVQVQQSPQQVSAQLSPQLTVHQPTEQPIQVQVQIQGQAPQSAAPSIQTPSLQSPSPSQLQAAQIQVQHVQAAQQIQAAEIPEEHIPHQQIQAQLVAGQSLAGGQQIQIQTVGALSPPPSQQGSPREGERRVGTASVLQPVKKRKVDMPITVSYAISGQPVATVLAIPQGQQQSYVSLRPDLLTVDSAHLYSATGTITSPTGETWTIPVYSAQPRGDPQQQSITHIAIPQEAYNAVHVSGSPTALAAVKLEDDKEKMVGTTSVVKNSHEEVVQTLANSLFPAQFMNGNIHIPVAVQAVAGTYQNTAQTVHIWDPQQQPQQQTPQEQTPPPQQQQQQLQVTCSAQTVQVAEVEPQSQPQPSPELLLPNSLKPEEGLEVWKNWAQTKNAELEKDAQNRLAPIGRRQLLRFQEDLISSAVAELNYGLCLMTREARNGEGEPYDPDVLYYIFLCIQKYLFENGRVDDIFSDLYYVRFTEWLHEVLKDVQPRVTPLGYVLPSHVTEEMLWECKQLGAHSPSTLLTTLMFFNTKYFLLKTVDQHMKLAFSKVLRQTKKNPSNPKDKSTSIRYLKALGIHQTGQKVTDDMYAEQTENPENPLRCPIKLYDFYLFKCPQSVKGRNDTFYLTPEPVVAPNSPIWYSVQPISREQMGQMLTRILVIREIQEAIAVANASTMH
UniProt Q9UL25, sequence (Q9UL25 whole entry): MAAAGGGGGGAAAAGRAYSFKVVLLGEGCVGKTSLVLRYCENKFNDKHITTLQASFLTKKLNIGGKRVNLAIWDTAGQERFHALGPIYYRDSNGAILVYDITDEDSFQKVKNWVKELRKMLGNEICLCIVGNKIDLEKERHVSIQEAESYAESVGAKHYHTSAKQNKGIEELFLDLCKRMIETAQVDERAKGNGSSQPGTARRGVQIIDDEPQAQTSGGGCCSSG
UniProt O14966, sequence (O14966 whole entry): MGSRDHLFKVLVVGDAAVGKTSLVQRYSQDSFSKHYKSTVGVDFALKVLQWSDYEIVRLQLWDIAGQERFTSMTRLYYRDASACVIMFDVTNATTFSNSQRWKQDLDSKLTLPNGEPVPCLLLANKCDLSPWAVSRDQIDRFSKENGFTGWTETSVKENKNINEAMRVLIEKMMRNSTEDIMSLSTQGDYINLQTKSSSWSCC
UniProt Q9NP72, sequence (Q9NP72 whole entry): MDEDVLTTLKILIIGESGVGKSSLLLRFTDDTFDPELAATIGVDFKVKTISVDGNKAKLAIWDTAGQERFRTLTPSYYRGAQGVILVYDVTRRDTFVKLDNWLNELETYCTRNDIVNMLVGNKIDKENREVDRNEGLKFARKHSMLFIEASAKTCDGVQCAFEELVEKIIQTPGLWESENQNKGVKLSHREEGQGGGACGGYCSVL
UniProt Q9ULC3, sequence (Q9ULC3 whole entry): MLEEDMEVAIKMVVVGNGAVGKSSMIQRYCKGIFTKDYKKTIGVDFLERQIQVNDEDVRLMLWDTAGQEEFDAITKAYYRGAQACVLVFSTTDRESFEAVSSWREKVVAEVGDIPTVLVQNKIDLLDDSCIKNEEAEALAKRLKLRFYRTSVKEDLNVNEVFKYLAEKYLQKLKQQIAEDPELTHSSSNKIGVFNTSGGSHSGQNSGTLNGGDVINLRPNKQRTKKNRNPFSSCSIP
UniProt P51159, sequence (P51159 whole entry): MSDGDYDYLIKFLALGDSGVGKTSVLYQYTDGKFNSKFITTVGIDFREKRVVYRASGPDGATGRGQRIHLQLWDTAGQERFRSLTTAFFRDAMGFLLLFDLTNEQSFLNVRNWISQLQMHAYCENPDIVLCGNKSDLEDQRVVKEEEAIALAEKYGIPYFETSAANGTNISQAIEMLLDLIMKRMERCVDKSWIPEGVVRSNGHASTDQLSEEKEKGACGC
UniProt Q9Y3T6, sequence (Q9Y3T6 whole entry, one chain of several): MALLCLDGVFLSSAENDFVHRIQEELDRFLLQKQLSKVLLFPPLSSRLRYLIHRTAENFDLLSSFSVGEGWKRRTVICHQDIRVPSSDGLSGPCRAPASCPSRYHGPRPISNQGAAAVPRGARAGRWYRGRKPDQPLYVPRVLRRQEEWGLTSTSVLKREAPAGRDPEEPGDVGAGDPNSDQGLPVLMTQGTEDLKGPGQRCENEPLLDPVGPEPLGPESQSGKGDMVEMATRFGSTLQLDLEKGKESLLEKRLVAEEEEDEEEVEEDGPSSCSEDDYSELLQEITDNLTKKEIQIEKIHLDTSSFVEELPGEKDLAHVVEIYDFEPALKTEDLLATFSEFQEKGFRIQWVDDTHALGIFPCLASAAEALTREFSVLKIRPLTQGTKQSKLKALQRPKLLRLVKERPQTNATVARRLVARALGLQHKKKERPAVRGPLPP
UniProt P09417, sequence (P09417 whole entry): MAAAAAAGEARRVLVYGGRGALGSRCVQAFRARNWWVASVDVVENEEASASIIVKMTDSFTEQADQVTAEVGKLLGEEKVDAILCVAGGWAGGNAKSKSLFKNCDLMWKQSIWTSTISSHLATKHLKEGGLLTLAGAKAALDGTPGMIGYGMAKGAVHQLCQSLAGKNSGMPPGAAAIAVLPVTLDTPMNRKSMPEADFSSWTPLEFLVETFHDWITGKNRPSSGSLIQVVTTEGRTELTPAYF
UniProt Q9UI14, sequence (Q9UI14 whole entry): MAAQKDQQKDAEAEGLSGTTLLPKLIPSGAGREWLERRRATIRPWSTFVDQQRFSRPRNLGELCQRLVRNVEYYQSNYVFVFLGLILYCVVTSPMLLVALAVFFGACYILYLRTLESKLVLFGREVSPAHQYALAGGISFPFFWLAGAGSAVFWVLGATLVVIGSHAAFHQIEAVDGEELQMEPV

Row | Target | thermal stability z-score [1, 3] | thermal stability z-score ([1]; arsenate co-treatment: none) | thermal stability z-score [2]
1 | QARS | -0.515 | -0.706 | -0.289
2 | QDPR (UniProt P09417) | 0.36 | 0.387 | -1.26
3 | QKI (UniProt Q96PU8) | -0.625 | 0.069 | 0.0813
4 | QPCTL (UniProt Q9NXS2) | -0.434 | -0.457 | -0.256
5 | QRICH1 (UniProt Q2TAL8) | -0.132 | -0.0369 | 0.0998
6 | QRSL1 (UniProt Q9H0R6) | -0.401 | -2.57 | 0.708
7 | QSER1 (UniProt Q2KHR3) | -0.147 | -0.0194 | 0.0737
8 | QSOX2 (UniProt Q6ZRP7) | 0.352 | 1.15 | 0.165
9 | QTRT1 (UniProt Q9BXR0) | 0.739 | -1.03 | -0.729
10 | QTRTD1 (UniProt Q9H974) | 0.678 | -0.447 | -0.765
11 | R3HCC1 (UniProt Q9Y3T6) | 0.183 | 0.233 | -0.101
12 | R3HCC1L (UniProt Q7Z5L2) | 0.00414 | 0.282 | 0.0177
13 | R3HDM1 (UniProt Q15032) | 0.0761 | 0.111 | 0.0316
14 | RAB1A (UniProt P62820) | 0.28 | 0.338 | 0.312
15 | RAB1B (UniProt Q9H0U4) | 0.238 | 0.549 | 0.196
16 | RAB2A (UniProt P61019) | 0.405 | 0.206 | 0.296
17 | RAB3D (UniProt O95716) | 0.635 | 1.07 | 0.692
18 | RAB3GAP1 (UniProt Q15042) | -0.562 | -0.113 | 0.764
19 | RAB3GAP2 (UniProt Q9H2M9) | -0.717 | -0.266 | 0.64
20 | RAB3IL1 (UniProt Q8TBN0) | -0.235 | 0.559 | -0.89
21 | RAB4A (UniProt P20338) | 0.387 | 0.311 | 0.408
22 | RAB5A (UniProt P20339) | -0.751 | -0.744 | -0.695
23 | RAB5B (UniProt P61020) | 0.278 | -0.614 | -0.758
24 | RAB5C (UniProt P51148) | 0.345 | 0.119 | 0.552
25 | RAB6A (UniProt P20340) | 0.448 | 0.693 | 0.284
26 | RAB7A (UniProt P51149) | 0.164 | 0.352 | 0.258
27 | RAB8A (UniProt P61006) | 0.0143 | 0.344 | 0.332
28 | RAB8B (UniProt Q92930) | 0.327 | 0.127 | -0.115

Row | Target | thermal stability z-score [1, 3] | thermal stability z-score ([1]; arsenate co-treatment: none) | thermal stability z-score [2]
29 | RAB9A (UniProt P51151) | 0.654 | 0.721 | 0.801
30 | RAB10 (UniProt P61026) | 0.387 | 0.379 | 0.276
31 | RAB11B (UniProt Q15907) | -0.384 | -1.01 | -0.384
32 | RAB11FIP1 (UniProt Q6WKZ4) | 0.271 | -0.127 | -0.162
33 | RAB11FIP5 (UniProt Q9BXF6) | 0.135 | -1.43 | 0.895
34 | RAB12 (UniProt Q6IQ22) | 1.06 | 1.06 | 0.678
35 | RAB13 (UniProt P51153) | -0.898 | -0.475 | 0.695
36 | RAB14 (UniProt P61106) | 0.738 | 0.522 | 0.48
37 | RAB18 (UniProt Q9NP72) | 0.167 | 0.352 | 0.672
38 | RAB20 (UniProt Q9NX57) | -0.495 | -0.609 | -0.306
39 | RAB21 (UniProt Q9UL25) | 0.0174 | 0.118 | 0.119
40 | RAB22A (UniProt Q9UL26) | 0.482 | 0.207 | -0.396
41 | RAB23 (UniProt Q9ULC3) | 0.712 | 0.437 | -0.626
42 | RAB24 (UniProt Q969Q5) | 0.205 | 0.12 | -0.143
43 | RAB27A (UniProt P51159) | 0.277 | -0.14 | 0.579
44 | RAB27B (UniProt O00194) | 0.463 | 0.0912 | 0.58
45 | RAB29 (UniProt O14966) | 0.114 | -0.0606 | 0.157
46 | RAB30 (UniProt Q15771) | -0.315 | -0.0453 | 0.498
47 | RAB31 (UniProt Q13636) | 0.762 | 0.822 | 0.42
48 | RAB32 (UniProt Q13637) | -0.0545 | -0.0863 | 0.411
49 | RAB33B (UniProt Q9H082) | 0.43 | 0.463 | 0.955
50 | RAB34 | 0.732 | 0.783 | -0.0345
51 | RAB35 (UniProt Q15286) | -0.564 | 0.0595 | -0.435
52 | RAB43 (UniProt Q86YS6) | -0.0743 | 1.38 | 1.35
53 | RABAC1 (UniProt Q9UI14) | 0.138 | -0.0907 | -0.431
54 | RABEP1 (UniProt Q15276) | -0.36 | -0.194 | 0.182
55 | RABEP2 (UniProt Q9H5N1) | 0.129 | 0.15 | 1.26
